Assay results reported in paper PMC4595804, “A strategy to discover decoy chemokine ligands with an anti-inflammatory activity” (Scientific Reports, 2015).

Columns and labels:
Type in all cases: cell-based
[1] = biological target: T1, CCL4 (Homo sapiens, UniProt P13236); assay: Selectivity, neutraligand protocol, EGFP-CCR5+ HEK cells; details: 10 μM compound, 5 nM CCL4, EGFP-CCR5+ HEK cells
T1 construct: purchased R&D systems
Procedure: (§1) Figure 6 (a) Selectivity of CCL17 and CCL22 neutraligands towards 10 chemokines according to the “neutraligand protocol”. […] Each column represents the mean (block) ± SD (bars) of n = 3 experiments performed in triplicate. *p < 0.05; **p < 0.01; ***p < 0.005 as compared to chemokine + DMSO. (b) Chemokine neutraligands inhibited CCR4 endocytosis induced by CCL22 or CCL17. EGFP-CCR4^+ HEK cells were incubated for 30 min with DMSO or chemokine (100 nM CCL22 or CCL17) in the presence or absence of test compounds. […] Cell surface EGFP-tagged CCR4 receptors were measured by EGFP antibody labeling and flow cytometry analysis. CCR4 internalization was expressed as a percentage of total receptor surface expression calculated using control cells incubated with DMSO (100%). Each column represents the mean (block) ± SD (bars) of n = 3 experiments performed in triplicate. *p < 0.05; **p < 0.01; ***p < 0.005 as compared to chemokine alone. (c,d) Inhibition of CCL17 and CCL22- induced CCR4^+HUT78 T cell chemotaxis by neutraligands. […] The number of migrating cells induced by a chemokine alone was set at 100% migration. The number of migrating cells in the presence of chemokine and compounds were expressed as the corresponding percentages. Results were analyzed by fitting the experimental curves (% of migrating cells vs log compound concentration) using the Kaleidagraph software program, and the corresponding IC50 values were calculated. Means and SD values of triplicates were plotted.
(§2) Human cDNAs encoding CCR4 and CXCR3 receptors were cloned in pIRES plasmid (Clontech) while cDNAs encoding CCR2, CCR5, CXCR2 and CXCR4 receptors were cloned in pCEP4 vector (Life technologies). The receptors are cloned in frame with a signal peptide fused to enhanced green fluorescent protein (EGFP) as described previously. All plasmid constructs were fully sequenced prior to transfections. Human Kidney Embryonic HEK-293 cells (ATCC) were maintained in Minimal Essential Medium (MEM, Invitrogen) supplemented with 10% FCS, penicillin (100 U/ml), streptomycin (100 μg/ml) and L-glutamine (2 mM) (Invitrogen) at 37 °C and 5% CO2. The cells were transfected with pIRES EGFP-CCR4 plasmid using calcium phosphate precipitation method. Stably EGFP-CCR4^+ HEK cells were selected for 5 weeks with geneticin (G-418, 600μg/ml), and resulting cell clones were checked by fluorescence microscopy and FACS analysis. HEK cells stably expressing human CXCR2, CXCR3, CXCR4, CCR5 and CCR2 were generated as described previously.
(§3) Dye loaded cells were placed in the FlexStation 3 (Molecular Devices). Calcium mobilization was measured at 401 and 475 nm emission fluorescence after excitation at 355 nm. For the primary screening, the ligands (50μl of chemokine mixed with DMSO or test compounds) were added to the cells at 40 s, followed by digitonin addition (50μl) at 100 s to the cells. Molecules were screened at a final concentration of 2μg/ml with 5 nM CCL17 or CCL22. […] Raw fluorescence data (at 401 and 475 nm) were exported and the ratio 401/475 was calculated. The calcium response values (height of peak response over baseline) were determined. Hits were selected by comparing the response amplitude at the time of the chemokine addition ± test compound. The Z’ factor[29] was calculated according to the following equation: Z’ = 1-(3SD+ + 3SD−)/|Ave+ − Ave−|, where SD+ and Ave+ are respectively the standard deviation and the mean value of the positive controls (chemokine + DMSO), while SD− and Ave− are respectively the standard deviation and the mean value of the negative controls (HEPES-BSA (0.1%) mixed with DMSO, or cells mixed with C-021). Hit molecules were confirmed by performing concentration-response curves and their half maximal inhibitory concentration (IC50) values were calculated using the Kaleidagraph software.

[2] = biological target: T2, CCL3 (Homo sapiens, UniProt P10147); assay: as above; details: 10 μM compound, 5 nM CCL3, EGFP-CCR5+ HEK cells
T2 construct: purchased R&D systems
T2 sequence (P10147 24-92): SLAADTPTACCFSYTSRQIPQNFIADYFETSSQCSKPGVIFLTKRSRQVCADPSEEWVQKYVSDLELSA
Procedure: as §1, §2, §3

[3] = biological target: T3, CCL5 (Homo sapiens, UniProt P13501); assay: as above; details: 10 μM compound, 5 nM CCL5, EGFP-CCR5+ HEK cells
T3 construct: (His)6; made in house; host or cells: E. coli BL21 (DE3)
T3 sequence (P13501 24-91): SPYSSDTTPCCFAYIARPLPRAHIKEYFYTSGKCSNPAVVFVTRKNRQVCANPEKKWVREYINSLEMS
Procedure: as §1, §2, §3

[4] = biological target: T4, CXCL12 (Homo sapiens, UniProt P48061); assay: TRIC-r calcium assay, neutraligand protocol, EGFP-CXCR4+ HEK cells; details: 10 μM compound, 5 nM CXCL12, EGFP-CXCR4+ HEK cells
T4 construct: (His)6; made in house; host or cells: E. coli BL21 (DE3)
T4 sequence (P48061 22-93): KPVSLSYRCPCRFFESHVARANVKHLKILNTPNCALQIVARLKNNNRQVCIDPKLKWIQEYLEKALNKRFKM

[5] = biological target: T5, COX1 (Homo sapiens, UniProt P23219); assay: COX1 mediated PGE2 release in primary monocytes; details: monocytes + arachidonic acid
T5 construct: endogenous in cells; host or cells: primary human monocytes
T5 sequence (P23219 24-599): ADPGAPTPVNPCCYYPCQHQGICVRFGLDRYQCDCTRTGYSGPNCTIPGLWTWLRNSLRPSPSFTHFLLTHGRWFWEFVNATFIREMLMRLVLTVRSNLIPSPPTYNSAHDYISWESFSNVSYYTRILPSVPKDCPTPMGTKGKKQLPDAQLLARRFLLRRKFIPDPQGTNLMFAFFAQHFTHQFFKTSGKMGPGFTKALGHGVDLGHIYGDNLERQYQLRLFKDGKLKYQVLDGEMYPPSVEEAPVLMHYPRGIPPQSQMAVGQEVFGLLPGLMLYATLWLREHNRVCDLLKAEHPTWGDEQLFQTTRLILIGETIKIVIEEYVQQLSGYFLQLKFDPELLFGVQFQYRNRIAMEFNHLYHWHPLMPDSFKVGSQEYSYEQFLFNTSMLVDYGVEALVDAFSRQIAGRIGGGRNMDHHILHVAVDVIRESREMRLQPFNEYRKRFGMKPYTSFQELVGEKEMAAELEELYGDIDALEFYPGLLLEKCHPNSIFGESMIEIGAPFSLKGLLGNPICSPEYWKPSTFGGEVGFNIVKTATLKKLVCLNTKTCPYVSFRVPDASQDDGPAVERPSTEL
Procedure: the wound closure was determined as the difference between wound width at times 0 and 72h. This experiment was repeated three times.
Human primary monocytes were isolated from buffy coats of healthy human blood donors and seeded in 24-well plates (500,000 cells/ml in 1ml) for COX-1/2 activity or 96-well plates for cell viability experiments.
Cells were seeded in 96 well plates (5,000 cells/well in 200µl) for cytotoxicity testing (Alamar […]
doses). After 24h, cytotoxicity was evaluated in the wells using the Alamar Blue method. NaF (250µg/ml) was used as a control in this experiment.
Cyclooxygenase (COX) activity
COX1 mediated prostaglandin E2 (PGE2) release. Monocytes were treated with arachidonic […]
were then collected for the determination of PGE2 by enzyme immunoassay (EIA) […]
COX2 mediated prostaglandin E2 (PGE2) release. Monocytes were incubated with LPS (10U/ml) for 24h to induce COX2 protein synthesis. After renewal of medium (serum free), […]
before AA treatment. The activity of COX2 was determined by measuring PGE2 (Cayman) in the supernatants by EIA. Aspirin (10µM) and diclofenac (10µM) were used as control […]
NaF (250µg/ml) was used as a control (relative light unit, r.l.u). (c) Monocytes were treated […]
GPN136 (grey bars). The activity of COX1 was determined by measuring prostaglandin E2 (PGE2). […]
of COX2 was determined by measuring PGE2. […]

T1 sequence (P13236 24-92): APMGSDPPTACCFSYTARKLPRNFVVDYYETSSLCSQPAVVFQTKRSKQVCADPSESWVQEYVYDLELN

doses at which COX1 activity is inhibited [5] [µM] | Structure (SMILES) | effect on calcium responses induced by CCL4 [1] | effect on calcium responses induced by CCL3 [2] | effect on calcium responses induced by CCL5 [3] | effect on calcium responses induced by CXCL12 [4] | effect on COX1 activity (PGE2) ([5]; 100 µM)
> 100 | O=C(OCC(O)CO)c1ccccc1O (stereo not shown) [GPN136, 2,3-dihydroxypropyl 2-hydroxybenzoate] | no effect | no effect | no effect | no effect | –
– | CC(C)=CCn1cnc2c1c(=O)n(C)c(=O)n2C [GPN279, 1,3-dimethyl-7-(3-methylbut-2-enyl)-1H-purine-2,6(3H, 7H)-dione] | no effect | no effect | no effect | no effect | no effect
